Values quoted from earlier work in PMC2967214 (Journal of the American Chemical Society, 2010).

Assays:
[1] = cited from earlier work
[2] = 25°C, 20 MHz; cited from earlier work

| Molecule | thermodynamic and kinetic stability of Gd3+ complex [1] | r1 relaxivity [2] |
| --- | --- | --- |
| O=C(O)CN1CCN(CC(=O)O)CCN(CC(=O)O)CCN(CC(=O)O)CC1 [DOTA] | high thermodynamic and kinetic stability |  |
| Gadomer 17 |  | 16.5 mM⁻¹ s⁻¹ |
